Measured values: patent US10508077B2 (FORMA Therapeutics, Inc., priority 2015, dated 2019)
pIC50: −log10 of the molar value.

These compounds were tested against T1, Full length human recombinant HDAC8 protein (Homo sapiens, UniProt Q9BY41) (assay: In vitro histone deacetylase assay: enzymatic HDAC8 assay, electrophoretic mobility shift). Conditions: substrate RHKK(Ac)-NH2, 1 nM enzyme, compounds listed under IC50 range headings.
T1 construct: Full length human recombinant HDAC8 protein was expressed in baculoviral system; made in house
T1 sequence (Q9BY41 1-377): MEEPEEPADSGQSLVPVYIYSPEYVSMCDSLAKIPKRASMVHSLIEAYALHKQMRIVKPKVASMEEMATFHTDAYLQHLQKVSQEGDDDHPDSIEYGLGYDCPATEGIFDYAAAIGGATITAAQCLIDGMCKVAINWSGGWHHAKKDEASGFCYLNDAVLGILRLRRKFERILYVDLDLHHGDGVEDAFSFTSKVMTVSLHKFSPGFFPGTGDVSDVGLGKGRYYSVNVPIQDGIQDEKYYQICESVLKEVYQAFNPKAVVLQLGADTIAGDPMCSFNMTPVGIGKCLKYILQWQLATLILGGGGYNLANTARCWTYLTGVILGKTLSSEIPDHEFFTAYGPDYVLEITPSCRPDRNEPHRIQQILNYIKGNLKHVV
Format: biochemical
Procedure: The enzymatic HDAC8 assay was performed using electrophoretic mobility shift assay. Full length human recombinant HDAC8 protein was expressed in baculoviral system and purified by affinity chromatography. The enzymatic reactions were assembled in 384 well plates in a total volume of 25 μL in a reaction buffer composing: 100 mM HEPES, pH7.5, 25 mM KC, 0.1% bovine serum albumin, 0.01% Triton X-100, 1% DMSO (from compounds) 2 μM of the fluorescently labeled peptide substrate and enzyme. The enzyme was added at a final concentration of 1 nM. The peptide substrate RHKK(Ac)-NH2 was used. The compounds were tested at 12 concentrations spaced by 3× dilution intervals. Negative control samples (0%-inhibition in the absence of inhibitor) and positive control samples (100%-inhibition) were assembled in replicates of four in each assay plate. The reactions were incubated at 25° C. and quenched by the addition of 45 μL of termination buffer (100 mM HEPES, pH 7.5, 0.01% Triton X-100, 0.05% SDS).
The terminated assay plates were analyzed on LabChip® 3000 microfluidic electrophoresis instrument (Perkin Elmer/Caliper Life Sciences). The fluorescence intensity of the electrophoretically separated de-acetylated product and substrate peptide was measured. Activity in each sample was determined as the product to sum ratio (PSR): P/(S+P), where P is the peak height of the product peptide and S is the peak height of the substrate peptide. Percent inhibition (Pinh) is determined using the following equation: Pinh=(PSR0%−PSRinh)/(PSR0%−PSR100%)*100, where PSRinh is the product sum ratio in the presence of inhibitor, PSR0% is the average product sum ration in the absence of inhibitor and PSR 100% is the average product sum ratio in 100%-inhibition control samples. The IC50 values of inhibitors were determined by fitting the %-inhibition curves with 4 parameter dose-response model using XLfit 4 software. Ranges of IC50 values for compounds of the invention are disclosed in Table 26.
Work on `O=C(/C=C/c1ccccc1N1CCN(C(=O)C2(c3ccccc3)CC2)CC1)NO` [Example I-36, (E)-N-hydroxy-3-(2-(4-(1-phenylcyclopropane-1-carbonyl)piperazin-1-yl)phenyl)acrylamide] yielded a pIC50 of 5.00 to 6.00.
For `O=C(/C=C/c1ccccc1N1CCN(C(=O)C2(c3ccccc3)CCC2)CC1)NO` [Example I-37, (E)-N-hydroxy-3-(2-(4-(1-phenylcyclobutane-1-carbonyl)piperazin-1-yl)phenyl)acrylamide], the pIC50 was 5.00 to 6.00.
With `O=C(/C=C/c1ccccc1NC(=O)c1nccn1-c1ccccc1C(F)(F)F)NO` [Example I-38, (E)-N-(2-(3-(hydroxyamino)-3-oxoprop-1-en-1-yl)phenyl)-1-(2-(trifluoromethyl)phenyl)-1H-imidazole-2-carboxamide] the pIC50 was 5.00 to 6.00.
In the case of `O=C(/C=C/c1ccccc1NCc1nc2ccccc2[nH]1)NO` [Example I-39, (E)-3-(2-(((1H-benzo[d]imidazol-2-yl)methyl)amino)phenyl)-N-hydroxyacrylamide], the pIC50 was greater than 6.00.
In the case of `CC(=O)Nc1cccc(C(=O)Nc2ccccc2/C=C/C(=O)NO)c1` [Example I-42, (E)-3-acetamido-N-(2-(3-(hydroxyamino)-3-oxoprop-1-en-1-yl)phenyl)benazmide], the pIC50 was greater than 6.00.
`O=C(/C=C/c1ccccc1NCc1cccc(C(F)(F)F)c1)NO` [Example I-46, (E)-N-hydroxy-3-(2-((3-(trifluoromethyl)benzyl)amino)phenyl)acrylamide] was tested, and the pIC50 was greater than 6.00.
`CC(C)(C)OC(=O)N1CCC2(CCC(C(=O)Nc3ccccc3/C=C/C(=O)NO)CC2)CC1` [Example I-47, tert-butyl-(E)-9-((2-(3-(hydroxyamino)-3-oxoprop-1-en-1-yl)phenyl)carbamoyl)-3-azaspiro[5.4]undecane-3-carboxylate] was tested, and the pIC50 was greater than 6.00.
Compound `CC(C)(C)OC(=O)N1CCC2(CC1)CCN(c1ccccc1/C=C/C(=O)NO)CC2` [Example I-50, tert-butyl-(E)-9-(2-(3-(hydroxyamino)-3-oxoprop-1-en-1-yl)phenyl)-3,9-diazaspiro[5.5]undecane-3-carboxylate] has a pIC50 greater than 6.00.
Compound `N#Cc1ccc2nc(CNc3ccccc3/C=C/C(=O)NO)[nH]c2c1` [Example I-51] has a pIC50 greater than 6.00.
`O=C(/C=C/c1ccccc1N1CCC2(CCNCC2)CC1)NO` [Example I-52, (E)-3-(2-(3,9-diazaspiro[5.5]undecan-3-yl)phenyl)-N-hydroxyacrylamide 2,2,2-trifluoroacetate] showed a pIC50 greater than 6.00.
In the case of `NC(=O)CCc1cccc(CNc2ccccc2/C=C/C(=O)NO)c1` [Example I-53, (E)-3-(2-((3-(3-amino-3-oxopropyl)benzyl)amino)phenyl)-N-hydroxyacrylamide], the pIC50 was greater than 6.00.
Compound `O=C(/C=C/c1ccccc1NCC1CCCCC1)NO` [Example I-55, (E)-3-(2-((cyclohexylmethyl)amino)phenyl)-N-hydroxyacrylamide] has a pIC50 greater than 6.00.
With `O=C(/C=C/c1ccccc1NC(=O)C1CCCCC1)NO` [Example I-56, (E)-N-(2-(3-(hydroxyamino)-3-oxoprop-1-en-1-yl)phenyl)cyclohexanecarboxamide] the pIC50 was greater than 6.00.
`O=C(/C=C/c1ccccc1N1CCCCC1)NO` [Example I-57, (E)-N-hydroxy-3-(2-(piperidin-1-yl)phenyl)acrylamide] was tested, and the pIC50 was greater than 6.00.
Work on `CC(C)(C)OC(=O)N1CCN(c2ccccc2/C=C/C(=O)NO)CC1` [Example I-58, tert-butyl (E)-4-(2-(3-(hydroxyamino)-3-oxoprop-1-en-1-yl)phenyl)piperazine-1-carboxylate] yielded a pIC50 greater than 6.00.
In the case of `O=C(/C=C/c1ccccc1N1CCNCC1)NO` [Example I-59, (E)-N-hydroxy-3-(2-(piperazin-1-yl)phenyl)acrylamide 2,2,2-trifluoroacetate], the pIC50 was greater than 6.00.
Compound `CC(C)(C)OC(=O)NC1CCN(c2ccccc2/C=C/C(=O)NO)CC1` [Example I-60, tert-butyl (E)-(1-(2-(3-(hydroxyamino)-3-oxoprop-1-en-1-yl)phenyl)piperidin-4-yl)carbamate] has a pIC50 greater than 6.00.
For `CC(C(=O)Nc1ccccc1/C=C/C(=O)NO)N1CCS(=O)(=O)CC1` (centres unmarked) [Example I-63, (E)-3-(2-(2-(1,1-dioxidothiomorpholino)propanamide)phenyl)-N-hydroxyacrylamide], the pIC50 was greater than 6.00.
`O=C(/C=C/c1ccccc1NC(=O)C1(c2ccccc2)CC1)NO` [Example I-64, (E)-N-(2-(3-(hydroxyamino)-3-oxoprop-1-en-1-yl)phenyl)-1-phenylcyclopropane-1-carboxamide] gave a pIC50 greater than 6.00.
`O=C(/C=C/c1ccccc1NC(=O)c1cc2n(n1)CCC2)NO` [Example I-74, (E)-N-(2-(3-(hydroxyamino)-3-oxoprop-1-en-1-yl)phenyl)-5,6-dihydro-4H-pyrrolo[1,2-b]pyrazole-2-carboxamide] showed a pIC50 greater than 6.00.
In the case of `Cn1nc(C(F)(F)F)cc1-c1ccc(C(=O)Nc2ccccc2/C=C/C(=O)NO)s1` [Example I-78, (E)-N-(2-(3-(hydroxyamino)-3-oxoprop-1-en-1-yl)phenyl)-5-(1-methyl-3-(trifluoromethyl)-1H-pyrazol-5-yl)thiophene-2-carboxamide], the pIC50 was greater than 6.00.
`Cc1cc(C(=O)Nc2ccccc2/C=C/C(=O)NO)n(C)n1` [Example I-80, (E)-N-(2-(3-(hydroxyamino)-3-oxoprop-1-en-1-yl)phenyl)-1,3-dimethyl-1H-pyrazole-5-carboxamide] showed a pIC50 greater than 6.00.
`O=C(/C=C/c1ccccc1NC(=O)c1cc2ccccn2n1)NO` [Example I-82, (E)-N-(2-(3-(hydroxyamino)-3-oxoprop-1-en-1-yl)phenyl)pyrazolo[1,5-a]pyridine-2-carboxamide] showed a pIC50 greater than 6.00.
For `O=C(/C=C/c1ccccc1NCc1ccc(Cl)cc1)NO` [Example I-86, (E)-3-(2-((4-chlorobenzyl)amino)phenyl)-N-hydroxyacrylamide], the pIC50 was greater than 6.00.
In the case of `CC(C)c1ccc(CNc2ccccc2/C=C/C(=O)NO)nc1` [Example I-87, (E)-N-hydroxy-3-(2-(((5-isopropylpyridin-2-yl)methyl)amino)phenyl)acrylamide], the pIC50 was greater than 6.00.
For `O=C(/C=C/c1ccccc1NCc1ccnc2ccccc12)NO` [Example I-88, (E)-N-hydroxy-3-(2-((quinolin-4-ylmethyl)amino)phenyl)acrylamide], the pIC50 was greater than 6.00.
In the case of `COc1cncc(CNc2ccccc2/C=C/C(=O)NO)c1` [Example I-90], the pIC50 was greater than 6.00.
Compound `O=C(/C=C/c1ccccc1NCc1ccc(-c2ccccn2)cc1)NO` [Example I-92, (E)-N-hydroxy-3-(2-((4-(pyridin-2-yl)benzyl)amino)phenyl)acrylamide] has a pIC50 greater than 6.00.
Work on `O=C(/C=C/c1ccccc1NCc1ccc(-c2ccccc2)nc1)NO` [Example I-99, (E)-N-hydroxy-3-(2-(((6-phenylpyridin-3-yl)methyl)amino)phenyl)acrylamide] yielded a pIC50 greater than 6.00.
Compound `O=C(/C=C/c1ccccc1NCc1cc2cccnc2[nH]1)NO` [Example I-102, (E)-3-(2-(((1H-pyrrolo[2,3-b]pyridin-2-yl)methyl)amino)phenyl)-N-hydroxyacrylamide] has a pIC50 greater than 6.00.
`CC(C)Nc1ncc(CNc2ccccc2/C=C/C(=O)NO)cn1` [Example I-105, (E)-N-hydroxy-3-(2-(((2-(isopropylamino)pyrimidin-5-yl)methyl)amino)phenyl)acrylamide] was tested, and the pIC50 was greater than 6.00.
`O=C(/C=C/c1ccccc1NCC1CCOC1)NO` (centres unmarked) [Example I-106, (E)-N-hydroxy-3-(2-(((tetrahydrofuran-3-yl)methyl)amino)phenyl)acrylamide] gave a pIC50 greater than 6.00.
Compound `NC(=O)C1CCC2(CC1)CCN(c1ccccc1/C=C/C(=O)NO)CC2` [Example I-108, (E)-3-(2-(3-(hydroxyamino)-3-oxoprop-1-en-1-yl)phenyl)-3-azaspiro[5.5]undecane-9-carboxamide] has a pIC50 greater than 6.00.
`CC(C)(C)OC(=O)N1CCCC2(CCN(c3ccccc3/C=C/C(=O)NO)CC2)C1` [Example I-109, tert-butyl (E)-9-(2-(3-(hydroxyamino)-3-oxoprop-1-en-1-yl)phenyl)-2,9-diazaspiro[5.5]undecane-2-carboxylate] gave a pIC50 greater than 6.00.
`O=C(/C=C/c1ccccc1N1CCC2(CCCNC2)CC1)NO` [Example I-110, (E)-3-(2-(2,9-diazaspiro[5.5]undecan-9-yl)phenyl)-N-hydroxyacrylamide 2,2,2-trifluoroacetate] showed a pIC50 greater than 6.00.
